Measured values: patent US11160820B2 (Dalian Minzu University, priority 2019, dated 2021)
Where two headings read alike, the source gives them in different places.

Legend:
[1] = test system: mice with LPS/D-GalN-induced acute hepatic failure; conditions: treatment group administrated with the AFG
Experimental: (§1) The mice of the blank group and the model group were given the equivalent dose of normal saline by gavage for three consecutive days before the establishment of the model. […] Upon the third day of gavage, the mice of the blank group were given the equivalent dose of normal saline by intraperitoneal injection, and the mice of the model group and the groups with low, medium and high doses were given the LPS and the D-GalN by intraperitoneal injection. After 6 hours of modeling, blood and liver tissues were taken. Whole blood was centrifuged (4000 rmp×10 min), and then the supernatant was taken. The liver tissue was washed with normal saline, one-fourth of the large liver lobe was stored in a formalin solution, and the rest of the liver was stored in a refrigerator of −80° C.

[2] = test system: mice with LPS/D-GalN-induced acute hepatic failure
Experimental: as §1
The in vitro liver tissue was spread on a white paperboard, observed for the appearance of the liver tissue, and photographed.

[3] = test system: mice with LPS/D-GalN-induced acute hepatic failure; remark: listed apart in the source
Experimental: as §1
The liver tissue was soaked in a 10% formalin solution, washed under running water, dehydrated with ethanol solutions of low to high concentrations, xylene solution, embedded with paraffin, sectioned, stained with H&E, and observed under a microscope for the pathological morphology of the liver tissue.

[4] = test system: mice with LPS/D-GalN-induced acute hepatic failure; conditions: for Aspartate transferase (AST) / Alanine transferase (ALT): serum, 6 hours after modeling
Experimental: as §1
Plasma was taken, and determined with alanine transaminase (GPT) and aspartate transferase (GOT) kits. The experiment followed the instructions of the kits available from Nanjing Jiancheng Bioengineering Institute.
(§2) All experimental data were analyzed by a Graphpad Prism 7.0 software. Statistical analysis between the two groups was conducted by a t test. Variance analysis was conducted by Ordinary one-way ANOVA. A Multiple Comparison method was used for conducting pairwise comparison among multiple groups. When the P value was <0.05, it was considered that there was statistical difference among the data of each group.

[5] = test system: mice with LPS/D-GalN-induced acute hepatic failure; conditions: for Catalase (CAT) / Glutathione (GSH) / Malondialdehyde (MDA) / Superoxide dismutase (SOD): liver tissue homogenate
Experimental: as §1
The liver tissue homogenate was detected with glutathione (GSH), superoxide dismutase (SOD), malondialdehyde (MDA) and catalase (CAT) kits. The experiment followed the instructions of kits available from Nanjing Jiancheng Bioengineering Institute.
as §2

[6] = test system: mice with acute hepatitis/hepatic failure caused by LPS/D-GalN; conditions: through a TLR4 signaling pathway; International Immunopharmacology, 2018, 61:266-276; cited from earlier work
[7] = group with the high dose of the AFG, P<0.01
[8] = AFG 25 mg/kg by gavage for 3 days before LPS/D-GalN
[9] = AFG 50 mg/kg by gavage for 3 days before LPS/D-GalN
[10] = AFG 100 mg/kg by gavage for 3 days before LPS/D-GalN
[11] = groups with medium and high doses of the AFG, P<0.05

SMILES: N=C(N)NCCC[C@H](NCC(=O)[C@@H](O)[C@H](O[C@H]1O[C@H](CO)[C@@H](O)[C@H](O)[C@H]1O)[C@H](O)CO)C(=O)O [AFG, argininyl fructosy glucose]
- number of apoptotic cells (TUNEL) compared with the model group [1]: significantly reduced
- appearance of the liver, protection effect ([2]; group protected with the high dose): the protection effect was obvious
- appearance of the liver ([2]; with the increase of the protection dose): gradually tended to be of a normal state
- H&E stained liver sections compared with the model group ([3]; group with the high dose of the AFG): the cells had relatively complete structures
- H&E stained liver sections compared with the model group ([3]; group with the medium dose of the AFG): cellular necrosis was significantly improved
- improvement of acute hepatic failure caused by the combination of LPS and D-GalN ([4]; AFG in the range from 50 mg/kg to 100 mg/kg, overall conclusion): can significantly improve the acute hepatic failure
- level of ALT in the serum compared with the model group [4, 7]: significantly decreased
- level of AST in the serum compared with the model group [4, 7]: significantly decreased
- Aspartate transferase (AST) ([4]; AFG 25 mg/kg by gavage for 3 days before LPS 40 μg/kg + D-GalN 700 mg/kg i.p.): 260.52 ± 5.58
- Alanine transferase (ALT) [4, 8]: 187.45 ± 3.48
- Alanine transferase (ALT) [4, 9]: 116.13 ± 3.37
- Aspartate transferase (AST) [4, 9]: 146.43 ± 0.93
- Alanine transferase (ALT) [4, 10]: 71.90 ± 5.97
- Aspartate transferase (AST) [4, 10]: 80.48 ± 5.09
- level of CAT compared with the model group [5, 11]: increased significantly
- level of MDA compared with the model group [5, 11]: increased significantly
- level of SOD compared with the model group [5, 11]: increased significantly
- Catalase (CAT) [5, 8]: 34.01 ± 2.75
- Glutathione (GSH) [5, 8]: 51.91 ± 3.29
- Malondialdehyde (MDA) [5, 8]: 133.37 ± 5.38
- Superoxide dismutase (SOD) [5, 8]: 11.48 ± 1.77
- Catalase (CAT) [5, 9]: 51.66 ± 6.19
- Glutathione (GSH) [5, 9]: 67.94 ± 3.58
- Malondialdehyde (MDA) [5, 9]: 104.00 ± 3.13
- Superoxide dismutase (SOD) [5, 9]: 20.98 ± 3.72
- Catalase (CAT) [5, 10]: 61.44 ± 8.96
- Glutathione (GSH) [5, 10]: 136.00 ± 6.90
- Malondialdehyde (MDA) [5, 10]: 94.44 ± 6.87
- Superoxide dismutase (SOD) [5, 10]: 26.54 ± 2.93

SMILES: CC(C)=CCC[C@](C)(O[C@@H]1O[C@H](CO)[C@@H](O)[C@H](O)[C@H]1O)[C@H]1CC[C@]2(C)[C@@H]1[C@H](O)C[C@@H]1[C@@]3(C)CC[C@H](O)C(C)(C)[C@@H]3[C@@H](O[C@@H]3O[C@H](CO)[C@@H](O)[C@H](O)[C@H]3O)C[C@]12C [ginsenoside Rg1]
- protective role on mice with acute hepatitis/hepatic failure caused by LPS/D-GalN [6]: plays a protective role
